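Cells were grown in 96-well plates and exposed to each compound for 48 hours at five concentrations; endpoints were interpolated linearly between bracketing concentrations, or set to the highest concentration if not reached. The concentration for 50% growth inhibition is given as GI50. The concentration for full growth arrest is given as TGI.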 Some results are limits rather than exact numbers.

The values below come from PubChem BioAssay (NCI).

Holding throughout (test): NCI anticancer screen, dose series, 48 h
For assay [1], the system named is CAKI-1 renal.
Assay [2] deals with DU-145 prostate.
The subject of assay [3] is EKVX NSCLC.
The test system of assay [4] is IGROV1 ovarian.
Assay [5] relates to K-562 leukemia.
The test system of assay [6] is M14 melanoma.
In assay [7] the test system is MALME-3M melanoma.
Assay [8] deals with OVCAR-5 ovarian.
Assay [9] has as its system SF-268 CNS.
Assay [10] relates to SNB-19 CNS.

For the molecule `O=C[C@@H](CO)O[C@H](C=O)c1c[nH]c(=O)[nH]c1=O`, the TGI in [1] came out at 250 µM; in [2], 437 µM; in assay [3], 329 µM; in [4], 343 µM; in [5] it was 818 µM; in [6] it was 527 µM. In addition, the TGI in assay [7] is 253 µM; in [8], 379 µM; in assay [9], 427 µM; in assay [10], 813 µM.
Take `C/C(=N\NC(=O)c1sc(=S)n(C)c1N)c1cc2ccccc2o1`: the GI50 in [1] was 37.6 µM; in assay [2], 11.4 µM; in assay [3] it was 11.9 µM; in [4], 21.4 µM; in assay [5] it was 6.38 µM; in assay [6], 14.7 µM. Also, the GI50 in [7] is 28.1 µM; in assay [8], 16.4 µM; in assay [9], 14.4 µM; in assay [10], 17.1 µM. In addition, the TGI is more than 100 µM in [1]; 27.6 µM in assay [2]; 29.3 µM in assay [3]; more than 100 µM in assay [4]; 30.8 µM in assay [5]; 40.5 µM in [6]. Further, the TGI in [7] was 56.9 µM; in assay [8], 48.2 µM; in assay [9] it was 37.4 µM; in assay [10], 45.6 µM.
Take `COc1cccc2c1C(=O)C=CC2=O`: the TGI in assay [1] is 13 µM; in assay [2], 33.5 µM; in assay [3] it was 32.8 µM; in [4], 27.2 µM; in assay [5], 4.97 µM; in assay [6], 20.7 µM. Also, the TGI in assay [7] was found to be 30.6 µM; in assay [8] it was 33 µM; in [9] it was 19.8 µM; in assay [10], 29.3 µM.
For `Cc1c2cc[n+](C)cc2c(C)c2c1sc1ccccc12`, the TGI in assay [1] is 60.6 µM; in assay [2] it was 5.07 µM; in assay [3], more than 50.2 µM; in [4], 28.4 µM; in assay [5] it was 41.3 µM; in [6], 14.2 µM. The TGI in assay [7] was determined as 1.92 µM; in assay [8], 15.6 µM; in assay [9], 1.14 µM; in [10] it was 2 µM.
Take `FC(F)(F)c1nc(N2CCCC2)ncc1-c1nnnn1-c1ccc(Cl)cc1`: the GI50 is 17.5 µM in assay [1]; 48.4 µM in assay [2]; 29 µM in assay [3]; 25.5 µM in [4]; 3 µM in [5]; 20.2 µM in assay [6]. Further, the GI50 in assay [7] is 16.9 µM; in assay [8], more than 100 µM; in assay [9], 23.7 µM; in assay [10] it was 30.9 µM. Also, the TGI in [1] was 88.2 µM; in [2], more than 100 µM; in [3], more than 100 µM; in assay [4], more than 100 µM; in assay [5], 22.6 µM; in [6], 55.3 µM. Further, the TGI in assay [7] is 42.6 µM; in assay [8], more than 100 µM; in [9] it was more than 100 µM; in [10], more than 100 µM.
Take `O=C(Nc1ccc(Cl)c(Cl)c1)c1cccc(NC2=C(Cl)C(=O)N(Cc3ccccc3)C2=O)c1`: the GI50 in assay [1] was 53.9 µM; in assay [2], 20.6 µM; in assay [3] it was 20.2 µM; in [4], 21.1 µM; in assay [5] it was 11.5 µM; in assay [6] it was 66 µM. For the same molecule, the GI50 in assay [7] is 62.1 µM; in assay [8] it was more than 100 µM; in assay [9], 34.9 µM; in assay [10], more than 100 µM. The TGI in assay [1] is more than 100 µM; in assay [2], more than 100 µM; in assay [3], 64.5 µM; in assay [4], 91.1 µM; in assay [5], more than 100 µM; in [6], more than 100 µM. For the same molecule, the TGI in assay [7], in assay [8], in [9] and in [10] was more than 100 µM in each case.
Consider `CC1(C)CC(=O)C(CCC(=O)/C=C/c2ccccc2)C(=O)C1`, for which the TGI in assay [1], in assay [2], in [3], in [4], in [5] and in [6] was more than 100 µM throughout. For the same molecule, the TGI in assay [7], in assay [8], in [9] and in assay [10] was more than 100 µM each time.
Consider `COc1ccc2[nH]c(=O)c3c4ccccc4cn3c2c1`, for which the GI50 in assay [1] is 0.169 µM; in assay [2], 0.604 µM; in [3], 0.878 µM; in [4] it was 0.575 µM; in assay [5], 0.276 µM; in assay [6] it was 0.494 µM. Also, the GI50 is 0.911 µM in [7], 0.659 µM in assay [8], 0.516 µM in [9] and 0.95 µM in assay [10]. The TGI was determined as 0.839 µM in assay [1]; 3.63 µM in [2]; 12.4 µM in assay [3]; 5.23 µM in assay [4]; 1.33 µM in assay [5]; 1.92 µM in assay [6]. The TGI stood at 2.48 µM in assay [7], 2.69 µM in assay [8], 3.19 µM in [9] and 9.33 µM in [10].
For `Cc1cc2nc(C(C)C(=O)c3ccc(Cl)cc3)c(=O)[nH]c2cc1C` (stereo not drawn), the TGI in assay [1] was more than 100 µM; in assay [2], more than 100 µM; in [3], 64.3 µM; in assay [4], more than 100 µM; in assay [5], more than 100 µM; in assay [6], more than 100 µM. For the same molecule, the TGI in assay [7], in [8], in assay [9] and in [10] was more than 100 µM each time.
Consider `CCc1nc(N)nc(N)c1-c1ccc(NCCN)c([N+](=O)[O-])c1`, for which the TGI was more than 100 µM in [1]; more than 100 µM in assay [2]; more than 100 µM in [3]; more than 100 µM in assay [4]; more than 100 µM in [5]; 75.5 µM in assay [6]. Moreover, the TGI was 40.7 µM in assay [7], more than 100 µM in assay [8], more than 76.3 µM in [9] and more than 100 µM in [10].
In the case of `CC[C@]12CCCN3CCc4c(n(c5ccccc45)C(=O)C1)[C@@H]32`, the TGI in assay [1] is more than 100 µM; in [2], more than 92.7 µM; in assay [3], more than 100 µM; in assay [4], more than 100 µM; in assay [5], more than 100 µM; in assay [6], more than 65.5 µM. Besides, the TGI in assay [7] was more than 67.9 µM; in assay [8] it was more than 100 µM; in assay [9] it was more than 75 µM; in assay [10], more than 100 µM.
`COc1cc(C(=O)/C=C/c2c(C)n([O-])c3ccc(C)cc3[n+]2=O)cc(OC)c1OC`: the GI50 in assay [1] was 2.2 µM; in assay [2] it was 7.88 µM; in assay [3], 19.4 µM; in assay [4] it was 3.8 µM; in assay [5], 2.8 µM; in assay [6] it was 4.27 µM. The GI50 is 2.24 µM in assay [7], 12.8 µM in assay [8], 12.3 µM in assay [9] and 20.8 µM in assay [10]. Moreover, the TGI in [2] is 21.1 µM; in assay [3], more than 100 µM; in assay [4], 13 µM; in [5], more than 24.7 µM; in [6], 10.3 µM; in assay [7] it was 5.2 µM. The TGI came to 29.6 µM in assay [8], 29.5 µM in assay [9] and 46 µM in assay [10].
For `Cc1c(N2CCCC2)cc2c(c1NC(=O)c1ccccc1Cl)C(C)(C)CC2(C)C`, the TGI in assay [1] was 26.1 µM; in assay [2], 29.3 µM; in assay [3], 29.9 µM; in assay [4], 28 µM; in assay [5], more than 100 µM; in assay [6] it was 26.8 µM. Besides, the TGI in assay [7] came out at 36.1 µM; in assay [8], 32.2 µM; in assay [9] it was 30.6 µM; in assay [10] it was 29.5 µM.
As to `Cc1ccc([N+](=O)[O-])cc1NC(=O)Nc1cccc(F)c1`, the GI50 in assay [1] is 3.35 µM; in assay [2] it was 4.54 µM; in [3] it was 3.68 µM; in [4], 5.78 µM; in assay [5], 2.63 µM; in assay [6], 22.1 µM. The GI50 in assay [7] is 4.66 µM; in assay [8] it was 9.82 µM; in assay [9] it was 6.9 µM; in [10], 6.27 µM. Also, the TGI in assay [1] is more than 100 µM; in assay [2], 28.4 µM; in assay [3], more than 100 µM; in [4] it was 35.9 µM; in assay [5], 71.4 µM; in assay [6], more than 100 µM. Moreover, the TGI in assay [7] was 51.8 µM; in assay [8] it was more than 100 µM; in [9] it was more than 100 µM; in [10], 97.1 µM.
For `OC(c1cccc(-n2ccc(C(F)(F)F)n2)c1)c1cnccc1NC1CCCCCC1` (stereo not drawn), the GI50 in [1] was 1.57 µM; in [2], 1.81 µM; in assay [3] it was 1.66 µM; in assay [4] it was 1.53 µM; in assay [5], 1.37 µM; in [6], 1.78 µM. Also, the GI50 in assay [7] was 1.71 µM; in assay [8], 1.64 µM; in assay [9] it was 1.69 µM; in [10] it was 1.73 µM. In addition, the TGI in assay [1] was 2.96 µM; in assay [2], 3.24 µM; in assay [3], 3.16 µM; in assay [4], 2.92 µM; in assay [5], 4.96 µM; in assay [6] it was 3.29 µM. Further, the TGI in [7] stood at 3.23 µM; in [8], 3.01 µM; in assay [9], 3.25 µM; in assay [10] it was 3.24 µM.
`O=C1c2ccccc2-c2c1c1ccccc1c(=O)n2CCCCNCCCn1c2c(c3ccccc3c1=O)C(=O)c1ccccc1-2`: the GI50 in [1] was 0.71 µM; in assay [2], 0.379 µM; in assay [3] it was 0.782 µM; in assay [5] it was 0.205 µM; in assay [6], 0.76 µM; in [7], 1.41 µM. For the same molecule, the values for the GI50 in assay [8], in assay [9] and in [10] were 0.676 µM, 0.358 µM and 0.51 µM, respectively. Also, the TGI in assay [1] is 4.21 µM; in [2], 1.12 µM; in assay [3], 1.75 µM; in assay [5] it was 9.62 µM; in [6] it was 4.18 µM; in [7] it was 6.03 µM. Also, the TGI in [8] is 1.54 µM; in [9] it was 6.93 µM; in [10] it was 10.4 µM.
As for `O=C(O)CCNc1ccccc1C(=O)O`, the TGI in assay [1], in assay [2], in assay [3], in assay [4], in assay [5] and in assay [6] was more than 100 µM throughout. The TGI in assay [7], in [8], in assay [9] and in assay [10] was more than 100 µM throughout.
As for `CC12CCC3C(CCC4Cc5[nH]c6ccccc6c5CC43C)C1CCC2O` (stereo not drawn), the GI50 is 0.791 µM in assay [1]; 1.69 µM in assay [2]; 3.69 µM in assay [3]; 0.768 µM in assay [4]; 0.753 µM in assay [6]; 2.92 µM in [7]. Moreover, the values for the GI50 in [8], in assay [9] and in assay [10] were more than 100 µM, 2.55 µM and 2.89 µM, respectively. The TGI in assay [1] was more than 100 µM; in [2], 5.5 µM; in [3], more than 100 µM; in [4], more than 100 µM; in [6], more than 19.8 µM; in [7] it was more than 100 µM. The TGI in [8], in assay [9] and in [10] was more than 100 µM each time.
On to `CCSCC1CC(O)(c2ccccc2)C(c2ccccc2)C(c2ccc(Cl)cc2)O1` (stereo not drawn), for which the GI50 in assay [1] was 1.49 µM; in assay [2] it was 1.99 µM; in [3] it was 1.38 µM; in [4], 2.01 µM; in assay [5], 1.89 µM; in assay [6], 1.81 µM. In addition, the results for the GI50 in [7], in [8] and in [9] were 1.58 µM, 1.82 µM and 2.1 µM, respectively. Besides, the TGI in assay [1] was determined as 4.06 µM; in assay [2], 4.4 µM; in assay [3], 4.29 µM; in assay [4] it was 4.88 µM; in assay [5], 8.37 µM; in assay [6], 3.4 µM. Besides, the TGI in [7] amounted to 3.18 µM; in assay [8], 3.54 µM; in assay [9], 5.56 µM.
